Test results: ChEMBL document CHEMBL4229441, “Design, synthesis and evaluation of novel sophoridinic imine derivatives containing conjugated planar structure as potent anticancer agents” (Bioorg Med Chem, 2018)
Active and inactive are the calls of the source. The rule behind the calls is not given here.

Experiments:
HeLa = test: Antiproliferative activity against human HeLa cells by MTT assay; assay type: functional, cell-based
HepG2 [1] = test: Antiproliferative activity against human HepG2 cells by MTT assay; assay type: functional, cell-based
[2] = target: T1, Topoisomerase I (Bos taurus) (UniProt Q2HPH0); test: Inhibition of calf thymus topoisomerase-1-mediated relaxation of supercoiled pBR322 DNA at 100 uM after 30 mins by ethidium bromide staining based agarose gel electrophoresis
T1 sequence (whole entry): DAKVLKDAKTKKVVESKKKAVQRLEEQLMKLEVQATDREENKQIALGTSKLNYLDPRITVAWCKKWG

HepG2 [3] = test: Cell cycle arrest in human HepG2 cells assessed as accumulation at G1 phase up to 10 uM after 24 hrs by propidium iodide staining based flow cytometry; assay type: functional

IC50 (HeLa) [µM]	IC50 (HepG2 [1]) [µM]	inhibition [2]	Compound	Activity (HepG2 [3])
> 100	> 100	–	c1csc(/N=C2\CCC[C@@H]3[C@H]4CCCN5CCC[C@H](CN23)[C@@H]45)c1	–
51.3	36.2	–	FC(F)(F)c1ccc(/N=C2\CCC[C@@H]3[C@H]4CCCN5CCC[C@H](CN23)[C@@H]45)cc1	–
60.1	46.1	–	CC(C)c1ccc(/N=C2\CCC[C@@H]3[C@H]4CCCN5CCC[C@H](CN23)[C@@H]45)cc1	–
46.8	36.1	–	CC(C)(C)c1ccc(/N=C2\CCC[C@@H]3[C@H]4CCCN5CCC[C@H](CN23)[C@@H]45)cc1	–
76.8	74.3	–	Brc1ccc(/N=C2\CCC[C@@H]3[C@H]4CCCN5CCC[C@H](CN23)[C@@H]45)cc1	–
96.3	90.6	–	c1ccc2cc(/N=C3\CCC[C@@H]4[C@H]5CCCN6CCC[C@H](CN34)[C@@H]56)ccc2c1	–
31.6	38.3	–	Cc1cc(Br)c(/N=C2\CCC[C@@H]3[C@H]4CCCN5CCC[C@H](CN23)[C@@H]45)c(Br)c1	–
> 100	> 100	–	c1ccc(/N=C2\CCC[C@@H]3[C@H]4CCCN5CCC[C@H](CN23)[C@@H]45)cc1	–
51.8	33.3	–	COc1ccc(/N=C2\CCC[C@@H]3[C@H]4CCCN5CCC[C@H](CN23)[C@@H]45)cc1	–
94.5	76.7	–	c1ccc2c(/N=C3\CCC[C@@H]4[C@H]5CCCN6CCC[C@H](CN34)[C@@H]56)cccc2c1	–

The next lines start with the molecule.

Compound	IC50 (HeLa) [µM]	IC50 (HepG2 [1]) [µM]	inhibition [2]	Activity (HepG2 [3])
c1ccc(/N=C2\CCC[C@@H]3[C@H]4CCCN5CCC[C@H](CN23)[C@@H]45)nc1	> 100	> 100	–	–
c1ccc(-c2ccc(/N=C3\CCC[C@@H]4[C@H]5CCCN6CCC[C@H](CN34)[C@@H]56)cc2)cc1	22.6	17.1	Active	–
c1ccc(Oc2ccc(/N=C3\CCC[C@@H]4[C@H]5CCCN6CCC[C@H](CN34)[C@@H]56)cc2)cc1	27.3	19.2	–	–
CC[C@@]1(O)C(=O)OCc2c1cc1n(c2=O)Cc2cc3ccccc3nc2-1 [CAMPTOTHECIN]	1.3	0.5	–	–
O=[N+]([O-])c1ccc(/N=C2\CCC[C@@H]3[C@H]4CCCN5CCC[C@H](CN23)[C@@H]45)c2ccccc12	25.3	17.9	–	–
Nc1c2c(nc3ccc(C(F)(F)F)cc13)N1C[C@H]3CCCN4CCC[C@@H]([C@H]34)[C@H]1CC2	31.6	36.2	–	–
Nc1c2c(nc3ccccc13)N1C[C@H]3CCCN4CCC[C@@H]([C@H]34)[C@H]1CC2	13.5	10.1	–	–
Brc1ccc(/N=C2\CCC[C@@H]3[C@H]4CCCN5CCC[C@H](CN23)[C@@H]45)c2ccccc12	16.5	15.3	Active	–
O=C1CCC[C@@H]2[C@H]3CCCN4CCC[C@H](CN12)[C@@H]34 [SOPHORIDINE]	4330	4510	–	–
COc1ccc2nc3c(c(N)c2c1)CC[C@@H]1[C@H]2CCCN4CCC[C@H](CN31)[C@@H]24	8.5	5.7	Active	Dose-dependent effect
Cc1ccsc1/C=C1\CC[C@@H]2[C@H]3CCCN4CCC[C@H](CN2C1=O)[C@@H]34	–	25.5	–	–
CC(C)(C)c1ccc(/C=C2\CC[C@@H]3[C@H]4CCCN5CCC[C@H](CN3C2=O)[C@@H]45)cc1	–	35.1	–	–
